Results reported in patent US6136841A, “3-, 8-substituted deuteroporphyrin derivatives, pharmaceutical agents that contain the latter, process for their production and their use in photodynamic therapy and MRI diagnosis” (Schering Aktiengesellschaft, priority 1998, dated 2000).
Where two headings read alike, the source gives them in different places.

Key:
[1] = tested on: human colon carcinoma (HT-29 P9); assay: Phototoxicity on a tumor cell culture, xenon lamp irradiation, live-dead coloration (Example 11); format: cell-based; conditions: irradiated with xenon lamp 8.5 k Lux, UV filter, three days; PE = porphyrin unit; 4320 min; read-out: ED50 (concentration at which about half of the cells are no longer vital)
Procedure: Determination of the phototoxicity (ED50) of compound Ic of WO 94/07894 (I) and of the title compound of Example 1d) (II) on a tumor cell culture.
In 25 ml culture flasks, a cell culture of human colon carcinoma (HT-29 P9) is reproduced for 3 days at 37° C. The cultures are divided into two groups and mixed with solutions of test substances (50 mmol of porphyrin unit (PE)/l, diluted with fetal calf serum) in increasing amounts (0; 1.5; 5; 8.5; 12; 15.5; 19 μmol of PE/l). The samples are irradiated for three days with a xenon lamp (8.5 k Lux, UV filter). The first group daily received 2 irradiations of 30 minutes each at an interval of 4 hours. For the rest of the time, it remains in the dark in an incubator. The second group is not exposed to light and remains in the dark in the incubator for the entire time. On the fourth day, the cell growth is determined by live-dead coloration and counting with the counting chamber.
The table indicates the concentration at which about half of the cells are no longer vital. (I: Example 1c of DE 4232925; II: Title compound of Example 1d)

[2] = tested on: human colon carcinomas (HT-29 P9); format: in vivo, hairless mouse
Procedure: Phototoxic effect of the compound [mu-16,16'-(7,12-diethyl-3,8,13,17-tetramethylporphyrin-2,18-diyl]bis[3,6,9-tris(carboxymethyl)-11,14-dioxo-3,6,9,12,13-pentaazahexadecanoato]}(8-)]}digadolinato(2-), disodium (Example 1c of WO 94/07894) on a tumor of a hairless mouse
Intracutaneous human colon carcinomas (HT-29 P9) are implanted in the sides of 15 hairless mice that weigh 24-30 g. The tumors are allowed to grow to a size of 5-10 mm. […] On days 1 and 3, i.v. substance is administered to the anesthetized animals. In this case, the animals of group 1 receive 2×130 μl of 0.9% NaCl solution, and they remain in the dark for the entire time. The animals of the second group receive 2×130 μl of a 100 mmol solution of the title compound, which corresponds to a dose of 2×0.5 mmol/kg of body weight. In each case, 30 minutes after administration, the animals are exposed to the light of a xenon lamp (8.5 k Lux, 1 cm glass as a UV filter) for 45 minutes. They spend the rest of the test time in the dark. 2×130 μl of a 100 mmol solution of test substance is also injected into the animals of the third group. The animals remain in the dark, however, for the duration of the test. On the 6th day after the substance is administered, the animals are sacrificed in ether. The tumor is measured, examined macroscopically, removed and tested histologically. […] In group 1, the range is 6.5×7.7 mm^2 up to 8.6×12.0 mm^2. In the very large tumors, which are fed by numerous blood vessels, small lesions of the skin (possibly bite marks) and in some cases deeper bleeding are evident in the center. […] With the animals of group 2, the following observations are made: […]

skin = conditions: in vivo; cited from earlier work

| Molecule | IC50 [1] | Histology: diameter of multifocal central necrosis ([2]; group 2, 2×0.5 mmol/kg i.v. + light, three non-eroded tumors) | Phototoxic action (overall) ([2]; group 2, substance + light) | Tumor growth into the muscle layer ([2]; group 2, substance + light) | Tumor size / tumor growth at end of test ([2]; group 2, substance + light) | Histology: diameter of multifocal central necrosis ([2]; group 3, 2×130 μl of 100 mmol solution, kept in the dark) | Tumor growth ([2]; group 3, substance, kept in the dark) | Duration of skin sensitization (skin) |
| --- | --- | --- | --- | --- | --- | --- | --- | --- |
| {Mu-[(16,16'-[zinc(II)-7,12-diethyl-3,8,13,17-tetramethylporphyrin-2,18-diyl]-bis[3,6,9-tris(carboxymethyl)-11,14-dioxo-3,6,9,12,13-pentaazahexadecanoato]}(8-)]}-digadolinato(2-), disodium [Example 1d] | 5.1 µM | – | – | – | – | – | – | – |
| [mu-16,16'-(7,12-diethyl-3,8,13,17-tetramethylporphyrin-2,18-diyl]bis[3,6,9-tris(carboxymethyl)-11,14-dioxo-3,6,9,12,13-pentaazahexadecanoato]}(8-)]}digadolinato(2-), disodium [Example 1c of WO 94/07894] | 6.4 µM | 1.5-2.1 mm | strong phototoxic action | The tumor did not grow into the muscle layer | Comparative measurement of tumor size was no longer possible in view of the extent of the destruction of the tumors. Tumor growth took place, if at all, only in the periphery and in deep tumor layers | 0.1-0.8 mm | The tumors continue to fluorish | – |
| Oc1cccc(-c2c3nc(c(-c4cccc(O)c4)c4ccc([nH]4)c(-c4cccc(O)c4)c4nc(c(-c5cccc(O)c5)c5ccc2[nH]5)CC4)C=C3)c1 [m-THPC] | – | – | – | – | – | – | – | ~ 3 weeks |
